Experimental data: patent US6440421B1, “Treatment of bone disorders with adrenomedullin or adrenomedullin agonists” (Auchkland Uniservices Limited, priority 1996, dated 2002)
No end group written: not given here.

What was measured:
[1] = tested on: fetal rat osteoblast-like cells; test: Osteoblast proliferation assay, cell counts; type: cell-based; conditions: for cell number relative to control osteoblasts: primary cultures of osteoblasts, final concentration of 1 nm
Method: (§1) Osteoblasts were isolated by collagenase digestion from 20-day fetal rat calvariae. The calvariae were then treated twice with phosphate buffered saline (PBS; Gibco, Grand Island, N.Y.) containing 3 Mm […] (EDTA; Sigma Chemical Co., St. Louis, Mo.) for 15 minutes at 37° C. in a shaking water bath. After washing once in PBS, 3 ml of 1 mg/ml collagenase (Sigma Chemical Co.) was added to the calvariae for 10 minutes at 37° C. After discarding the supernatant, the calvariae were treated twice with 2 mg/ml collagenase (30 mins, 37° C.). The supernatants were then centrifuged and the cells washed in Dulbecco's Modified Eagle's Medium (DMEM; Gibco Labs, Grand Island, N.Y.) with 10% fetal calf serum (FCS), suspended in further DMEM/10% FCS, and placed in […] flasks. The cells were incubated under 5% CO2 and 95% air at 37° C.
(§2) Confluence was reached by 5-6 days, at which time the cells were subcultured. After trypsinization using trypsin-EDTA (0.05%/0.53 […]; Gibco Labs, Grand Island, N.Y.), the cells were rinsed in Minimal Essential Medium (MEM; Gibco Labs) with 10% FCS and resuspended in MEM with 5% FCS, then seeded (10^5 cells/ml) in 24-well plates (0.5 ml cell suspension per well, i.e., 5×10^4 cells/well)
(§3) Cell proliferation studies (i.e., cell counts and thymidine incorporation) were performed both in actively-growing and growth-arrested cell populations. To produce actively-growing cells, subconfluent populations (24 hrs after subculturing) were changed to fresh MEM which contained 1% FCS and the test compounds. To produce growth-arrested cells, subconfluent populations were changed to serum-free medium with 0.1% bovine serum albumin plus the test compounds.
The effect of adrenomedullin on proliferation of fetal rat osteoblast-like cells was first assessed by the measurement of cell numbers. Cell counts were analyzed at 6, 24, and 48 hours after addition of the test compound or vehicle. The cell numbers were determined after removing cells from the wells by exposure to trypsin/EDTA (0.05%/0.53 Mm) for 5 minutes at 37° C. Counting was performed in a hemocytometer chamber. Results were expressed per well. […] This stimulation was maintained for at least 48 hours.

[2] = tested on: fetal rat osteoblast-like cells; test: DNA synthesis, [3H]-thymidine incorporation into osteoblasts; type: cell-based; conditions: for thymidine incorporation: primary cultures of osteoblasts, 1 nm; for [3H]-thymidine incorporation: 10^−10M, 24 hours
Method: as §1, §2, §3
The effect of adrenomedullin on DNA synthesis in osteoblasts was then assessed by the measurement of [^3H]-thymidine incorporation into isolated fetal rat osteoblast-like cells. [^3H]-thymidine incorporation into actively-growing and growth-arrested cells was assessed by pulsing the cells with [^3H]-thymidine (1 μCi/ml) (Amersham, Arlington Heights, Ill.) two hours before the end of the experimental incubation. The experiment was terminated at 6, 24, or 48 hours by washing the cells in MEM with cold thymidine followed by 10% trichloroacetic acid. The precipitate was washed twice with ethanol:ether (3:1), and the wells were desiccated at room temperature. The residue was redissolved in 0.5 M KOH at 85° C. for 30 mins, neutralized with 1 M Hcl, and an aliquot counted for radioactivity. Results were expressed as cpm per well.

neonatal mouse calvariae [3] = test: Bone organ culture, bone resorption (45Ca release); type: cell-based; conditions: 48 hours, concentrations of 10−7 M to 10^−10 M
Method: (§4) Bone resorption studies were carried out in neonatal mouse calvariae as previously described (Reid, et al., Endocrinology 126:1416-1420 (1990)). Mice were injected subcutaneously with 5 μCi ^45Ca (Amersham) at 2 days of age, and hemi-calvariae were dissected out 4 days later. Hemi-calvariae were pre-incubated for 24 hours in medium 199 (Gibco BRL, Grand Island, N.Y.) with 0.1% bovine serum albumin, then changed to fresh medium containing adrenomedullin or control vehicle. Incubation was continued for a further 48 hours. In the last 4 hours of incubation [^3H]-thymidine was incorporated into the organ cultures as described previously (Lowe, et al., Calif. Tissue Int. 49-394-397 (1991)). There were 5-7 calvariae in each group.

neonatal mouse calvariae [4] = test: Bone organ culture, [3H]-thymidine incorporation; type: cell-based; conditions: 48 hours, 10−7 M to 10^−10 M, same experiments
Method: as §4

adult mouse calvariae = test: Local effects on bone histology in vivo, histomorphometry of hemicalvariae
Method: The local effects of adrenomedullin on bone histology in vivo were assessed in adult mice using a previously described model (Cornish et al., Endocrinology 132:1359-1366, 1993). Sexually mature male ARC Swiss Webster mice aged between 40 and 50 days and weighing […] were given injections (25 μl) over the periosteum of the right hemicalvariae for 5 consecutive days. […] The animals were maintained on a low calcium diet (0.1%) from 5 days prior to the first injection. […] These doses were chosen based on experience with other bone-active peptides in this model. Animals in the control group (n=16) were injected with vehicle (water) only. All animals were sacrificed 1 week following the last injection. The study had the approval of the local institutional review board.
The calvariae were dissected free of soft tissue, and gross morphology was assessed by examination of the intact calvariae under a dissection microscope. Bone tissue was fixed in 10% phosphate-buffered formalin, dehydrated in a graded series of ethanol solutions and embedded undecalcified in methyl methacrylate resin. Sections (4 μm thick) were cut on a Leitz rotary microtome (Leica Instruments, Nussloch, Germany) using a tungsten-carbide knife, then mounted on gelatin-coated slides and air-dried. The sections were stained with a Goldner tri-chrome stain and examined using an Olympus BX 50 microscope (Olympus Optical Co Ltd, Tokyo, Japan) which was attached to an Osteomeasure Image Analyzer (Osteometrics Inc., Atlanta, Ga.). Histomorphometric analyzes were made of three adjacent fields (using a 20× objective) in each hemicalvaria.
The parameters assessed are as defined by the American Society for Bone and Mineral Research (Parfitt et al. J. Bone Miner. Res. 2:595-610, (1987)), and are expressed per mm of calvarial length. Osteoblasts were defined as cells immediately adjacent to osteoid. Osteoclast numbers included only multinucleated cells. The various surface estimates were based on measurements of both periosteal and intramembranous surfaces: those eroded by osteoclasts (eroded perimeter), those immediately adjacent to osteoclasts (osteoclast perimeter), and those immediately adjacent to osteoblasts (osteoblast perimeter). The precision of these histomorphometric measurements in these studies (expressed as coefficients of variation of paired. measurements) are as follows: mineralized bone area 1.3%, osteoid area 6.9%, osteoblast perimeter 6.8%, osteoblast number 1.7%, eroded perimeter 6.7%, osteoclast perimeter 7.9%, osteoclast number <1.0%, and calvarial length 0.2%. All measurements were made by one operator who was blinded to the treatment group of each bone.
In the in vivo experiment, the primary end-point for each histomorphometric index was the determination of whether it was different in the injected right hemicalvaria from the contralateral, uninjected bone of the same animal. The absolute values of each histomorphometric index are presented for the injected and uninjected hemicalvariae by treatment group in Tables 1-3. […] Tables 1-3. Effects of Adrenomedullin on Histomorphometric Indices in Adult Mouse Calvariae in vivo*

[5] = Injected hemicalvaria, Adrenomedullin 4 × 10^−10 mol, mean, per mm of calvarial length
[6] = Uninjected hemicalvaria, Adrenomedullin 4 × 10^−10 mol, mean, per mm of calvarial length
[7] = in the presence of adrenomedullin

In the case of “ADM(32-52) (QFTDKDKDNVAPRSKISPQGY; listed as Homo sapiens) [adrenomedullin fragment, residues 32-52]”, the “cell number relative to control osteoblasts” value [1] is reported as “statistically significant increase” and the thymidine incorporation [2] is reported as “increased”.
For adrenomedullin, the “duration for which stimulation of cell number was maintained” value ([1]; 1% FCS, actively-growing cells) was “at least 48 hours”, the “adrenomedullin concentration at which a significant increase in cell number was observed” value ([1]; 24 hours, 1% FCS, actively-growing cells) was ≥ 10^−12 M and the “increase in actively-growing osteoblasts (cell number)” value ([1]; 24 hours, medium containing 1% FCS, actively-growing cells) was “dose-dependent increase”. For the same substance, the “[3H]-thymidine incorporation” value ([2]; actively-growing cells) was “significantly stimulated”, the “[3H]-thymidine incorporation” value ([2]; growth-arrested cells) was “significantly stimulated” and the “45Ca release from prelabeled calvariae” value (neonatal mouse calvariae [3]) was “no significant change”. The “[3H]-thymidine incorporation” value (neonatal mouse calvariae [4]) was “significantly increased”, the “Bone Area” value (adult mouse calvariae; [5]) was 0.128 and the “Eroded Pm” value (adult mouse calvariae; [5]) was 0.67. The “Number of Obs” value (adult mouse calvariae; [5]) was 105, the “Number of Ocs” value (adult mouse calvariae; [5]) was 5.0 and the “Ob Perimeter” value (adult mouse calvariae; [5]) was 0.33. The “Oc Pm” value (adult mouse calvariae; [5]) was 0.15, the “Osteoid Area” value (adult mouse calvariae; [5]) was 0.0032 and the “Periosteal Area” value (adult mouse calvariae; [5]) was 0.012. The Periosteal Area (adult mouse calvariae; P=0.54) was “not changed”, the “Bone Area” value (adult mouse calvariae; [6]) was 0.114 and the “Eroded Pm” value (adult mouse calvariae; [6]) was 0.67. For the same substance, the “Number of Obs” value (adult mouse calvariae; [6]) was 61, the “Number of Ocs” value (adult mouse calvariae; [6]) was 4.4 and the “Ob Perimeter” value (adult mouse calvariae; [6]) was 0.56. For the same substance, the “Oc Pm” value (adult mouse calvariae; [6]) was 0.12, the “Osteoid Area” value (adult mouse calvariae; [6]) was 0.0012 and the “Periosteal Area” value (adult mouse calvariae; [6]) was 0.011. The “indices of osteoblast activity, ratio of injected to uninjected halves of each calvaria” value (adult mouse calvariae; either dose of adrenomedullin, 5 daily local injections) was “two- to three-fold increases”, the “increase of mineralized bone area” value (adult mouse calvariae; higher dose of adrenomedullin) was 13.6% and the “eroded perimeter, upward trend, ratio of injected to uninjected” value (adult mouse calvariae; [7]) was “significant”. For the same substance, the “resorption indices, ratio of injected to uninjected” value (adult mouse calvariae; [7]) was “slight upward trends”.
“ADM(28-40) (HQIYQFTDKDKDN; listed as Homo sapiens) [adrenomedullin fragment, residues 28-40]” was tested, and the “cell number relative to control osteoblasts” value [1] was “statistically significant increase” and the thymidine incorporation [2] was “increased”.
For “adrenomedullin(27-52) (AHQIYQFTDKDKDNVAPRSKISPQGY-NH2; listed as Homo sapiens) [fragment of adrenomedullin, residues 27-52, carboxyl terminal amidated]”, the “cell number relative to control osteoblasts” value [1] was “statistically significant increase” and the thymidine incorporation [2] was “increased”.
